In PMC10176470, “Engaging a Non-catalytic Cysteine Residue Drives Potent and Selective Inhibition of Caspase-6” (Journal of the American Chemical Society, 2023):

Key:
Assay in all cases: SILAC proteomics / in-gel fluorescence, competition of probe 13-t labeling by 3a
[1] = biological target: proteins of HEK293T cells transiently overexpressing caspase-6 (Homo sapiens, UniProt O14980); settings: Comp; protein XPO1 O14980
[2] = biological target: T1, proteins of HEK293T cells transiently overexpressing caspase-6 (Homo sapiens, UniProt O43175); settings: Comp; protein PHGDH O43175
T1 sequence (O43175 1-533): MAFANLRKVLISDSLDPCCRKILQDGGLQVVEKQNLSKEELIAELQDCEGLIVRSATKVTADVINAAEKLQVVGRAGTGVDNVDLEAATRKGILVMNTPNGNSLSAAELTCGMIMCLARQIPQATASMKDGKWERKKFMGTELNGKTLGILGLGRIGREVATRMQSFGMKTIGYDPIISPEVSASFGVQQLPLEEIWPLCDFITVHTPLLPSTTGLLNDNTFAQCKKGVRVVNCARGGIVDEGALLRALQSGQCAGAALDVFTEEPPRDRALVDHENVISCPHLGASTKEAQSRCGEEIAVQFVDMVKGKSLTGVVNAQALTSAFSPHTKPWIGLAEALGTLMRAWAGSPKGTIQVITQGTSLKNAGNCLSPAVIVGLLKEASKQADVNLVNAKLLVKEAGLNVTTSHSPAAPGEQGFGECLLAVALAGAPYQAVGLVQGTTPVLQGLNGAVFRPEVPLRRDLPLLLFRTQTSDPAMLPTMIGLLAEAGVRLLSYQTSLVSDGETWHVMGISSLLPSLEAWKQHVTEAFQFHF

[3] = biological target: proteins of HEK293T cells transiently overexpressing caspase-6 (Homo sapiens, UniProt P23526); settings: Comp; protein AHCY P23526
Sequence of proteins of HEK293T cells transiently overexpressing caspase-6 (Homo sapiens, UniProt P23526) (P23526 whole entry): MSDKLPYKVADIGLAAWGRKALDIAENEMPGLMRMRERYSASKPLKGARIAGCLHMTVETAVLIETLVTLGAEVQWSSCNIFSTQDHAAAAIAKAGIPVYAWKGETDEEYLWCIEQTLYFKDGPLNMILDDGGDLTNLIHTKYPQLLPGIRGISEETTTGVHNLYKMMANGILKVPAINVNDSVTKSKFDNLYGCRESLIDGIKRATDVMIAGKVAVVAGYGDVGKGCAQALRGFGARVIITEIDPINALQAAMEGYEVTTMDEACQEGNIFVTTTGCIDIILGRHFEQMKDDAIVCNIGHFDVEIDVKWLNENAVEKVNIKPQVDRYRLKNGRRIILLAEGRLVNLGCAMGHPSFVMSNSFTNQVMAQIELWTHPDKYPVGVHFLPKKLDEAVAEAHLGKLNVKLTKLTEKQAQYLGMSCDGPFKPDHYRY

[4] = biological target: proteins of HEK293T cells transiently overexpressing caspase-6 (Homo sapiens, UniProt P27695); settings: Comp; protein APEX1 P27695
Sequence of proteins of HEK293T cells transiently overexpressing caspase-6 (Homo sapiens, UniProt P27695) (P27695 whole entry): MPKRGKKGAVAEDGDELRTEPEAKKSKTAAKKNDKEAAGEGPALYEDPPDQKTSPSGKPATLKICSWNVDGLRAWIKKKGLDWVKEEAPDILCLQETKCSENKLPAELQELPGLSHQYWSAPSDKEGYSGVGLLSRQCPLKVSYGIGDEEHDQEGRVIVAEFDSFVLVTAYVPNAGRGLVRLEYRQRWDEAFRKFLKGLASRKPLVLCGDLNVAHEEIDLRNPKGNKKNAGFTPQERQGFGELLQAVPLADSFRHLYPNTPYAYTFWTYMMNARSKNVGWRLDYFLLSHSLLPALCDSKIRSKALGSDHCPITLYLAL

[5] = biological target: proteins of HEK293T cells transiently overexpressing caspase-6 (Homo sapiens, UniProt P31939); settings: Comp; protein ATIC P31939
Sequence of proteins of HEK293T cells transiently overexpressing caspase-6 (Homo sapiens, UniProt P31939) (P31939 whole entry): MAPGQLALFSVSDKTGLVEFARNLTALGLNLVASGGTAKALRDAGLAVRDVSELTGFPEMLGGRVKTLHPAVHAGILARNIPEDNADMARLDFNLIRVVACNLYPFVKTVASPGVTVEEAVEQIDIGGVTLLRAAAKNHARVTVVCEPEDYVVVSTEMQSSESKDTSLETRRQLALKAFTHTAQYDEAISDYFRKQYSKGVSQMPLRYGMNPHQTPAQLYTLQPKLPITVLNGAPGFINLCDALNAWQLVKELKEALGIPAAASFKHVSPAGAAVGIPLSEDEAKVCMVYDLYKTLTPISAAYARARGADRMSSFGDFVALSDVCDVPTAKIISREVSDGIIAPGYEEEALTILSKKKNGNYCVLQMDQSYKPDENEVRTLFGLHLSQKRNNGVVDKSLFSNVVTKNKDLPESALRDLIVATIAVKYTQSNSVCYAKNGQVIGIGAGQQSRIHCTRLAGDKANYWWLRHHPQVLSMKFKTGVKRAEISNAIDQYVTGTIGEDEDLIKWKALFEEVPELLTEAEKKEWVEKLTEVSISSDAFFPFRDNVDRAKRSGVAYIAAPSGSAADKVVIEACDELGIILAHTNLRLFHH

[6] = biological target: proteins of HEK293T cells transiently overexpressing caspase-6 (Homo sapiens, UniProt P52209); settings: Comp; protein PGD P52209
Sequence of proteins of HEK293T cells transiently overexpressing caspase-6 (Homo sapiens, UniProt P52209) (P52209 whole entry): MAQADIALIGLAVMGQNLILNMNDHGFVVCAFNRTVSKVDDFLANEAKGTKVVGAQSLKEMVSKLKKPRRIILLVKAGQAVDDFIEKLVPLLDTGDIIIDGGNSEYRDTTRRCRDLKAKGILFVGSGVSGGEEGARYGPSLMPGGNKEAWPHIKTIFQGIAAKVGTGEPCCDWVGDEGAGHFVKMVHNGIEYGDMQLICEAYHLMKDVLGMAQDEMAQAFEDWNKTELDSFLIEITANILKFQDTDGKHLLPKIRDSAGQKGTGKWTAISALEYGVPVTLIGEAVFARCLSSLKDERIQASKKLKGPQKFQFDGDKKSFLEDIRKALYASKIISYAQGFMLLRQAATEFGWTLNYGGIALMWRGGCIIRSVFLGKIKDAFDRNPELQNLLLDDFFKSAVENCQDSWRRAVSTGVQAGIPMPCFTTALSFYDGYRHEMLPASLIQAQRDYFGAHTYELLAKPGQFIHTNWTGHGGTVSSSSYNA

[7] = biological target: T2, proteins of HEK293T cells transiently overexpressing caspase-6 (Homo sapiens, UniProt P54136)
T2 sequence (P54136 1-660): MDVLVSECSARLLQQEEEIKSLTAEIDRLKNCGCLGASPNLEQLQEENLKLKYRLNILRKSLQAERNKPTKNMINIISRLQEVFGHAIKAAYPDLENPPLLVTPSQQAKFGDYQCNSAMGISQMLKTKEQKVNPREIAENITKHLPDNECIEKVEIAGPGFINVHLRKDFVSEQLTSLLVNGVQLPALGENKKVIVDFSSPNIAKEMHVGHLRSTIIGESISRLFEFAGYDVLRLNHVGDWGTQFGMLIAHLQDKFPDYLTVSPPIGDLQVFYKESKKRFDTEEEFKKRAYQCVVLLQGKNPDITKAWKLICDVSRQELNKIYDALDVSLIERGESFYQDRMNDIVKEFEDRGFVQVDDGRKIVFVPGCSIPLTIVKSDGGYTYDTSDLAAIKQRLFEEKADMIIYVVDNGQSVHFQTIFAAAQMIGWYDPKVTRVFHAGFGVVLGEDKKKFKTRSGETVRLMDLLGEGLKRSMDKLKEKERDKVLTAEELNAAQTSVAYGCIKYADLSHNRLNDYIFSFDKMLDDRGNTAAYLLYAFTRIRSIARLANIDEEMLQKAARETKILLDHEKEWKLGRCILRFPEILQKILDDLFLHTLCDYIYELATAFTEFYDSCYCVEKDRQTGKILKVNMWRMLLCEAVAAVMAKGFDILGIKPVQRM

[8] = biological target: proteins of HEK293T cells transiently overexpressing caspase-6 (Homo sapiens, UniProt P55884); settings: Comp; protein EIF3B P55884
Sequence of proteins of HEK293T cells transiently overexpressing caspase-6 (Homo sapiens, UniProt P55884) (P55884 whole entry): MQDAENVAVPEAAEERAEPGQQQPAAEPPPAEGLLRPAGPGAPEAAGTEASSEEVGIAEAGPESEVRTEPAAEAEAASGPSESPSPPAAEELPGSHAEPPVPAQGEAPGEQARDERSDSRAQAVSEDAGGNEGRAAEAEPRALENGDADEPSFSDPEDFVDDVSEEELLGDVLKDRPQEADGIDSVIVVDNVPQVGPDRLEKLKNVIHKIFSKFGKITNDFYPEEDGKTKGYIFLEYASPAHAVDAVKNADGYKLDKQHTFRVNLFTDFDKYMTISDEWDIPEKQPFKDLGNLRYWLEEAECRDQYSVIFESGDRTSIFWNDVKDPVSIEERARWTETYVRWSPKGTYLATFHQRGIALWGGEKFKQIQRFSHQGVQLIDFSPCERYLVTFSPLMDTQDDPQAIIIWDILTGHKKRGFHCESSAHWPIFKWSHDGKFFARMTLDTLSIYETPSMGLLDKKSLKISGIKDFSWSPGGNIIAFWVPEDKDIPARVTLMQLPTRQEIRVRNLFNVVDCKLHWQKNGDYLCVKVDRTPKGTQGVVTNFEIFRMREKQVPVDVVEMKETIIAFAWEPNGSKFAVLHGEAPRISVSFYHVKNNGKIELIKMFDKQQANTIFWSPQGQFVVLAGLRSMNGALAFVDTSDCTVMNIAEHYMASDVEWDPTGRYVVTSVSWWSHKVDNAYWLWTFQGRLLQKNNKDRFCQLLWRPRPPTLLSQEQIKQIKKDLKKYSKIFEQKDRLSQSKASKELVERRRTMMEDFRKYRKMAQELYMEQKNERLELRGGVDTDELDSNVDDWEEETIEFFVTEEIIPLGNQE

[9] = biological target: proteins of HEK293T cells transiently overexpressing caspase-6 (Homo sapiens, UniProt P83731); settings: Comp; protein RPL24 P83731
[10] = biological target: proteins of HEK293T cells transiently overexpressing caspase-6 (Homo sapiens, UniProt Q15393); settings: Comp; protein SF3B3 Q15393
Sequence of proteins of HEK293T cells transiently overexpressing caspase-6 (Homo sapiens, UniProt Q15393) (Q15393 whole entry): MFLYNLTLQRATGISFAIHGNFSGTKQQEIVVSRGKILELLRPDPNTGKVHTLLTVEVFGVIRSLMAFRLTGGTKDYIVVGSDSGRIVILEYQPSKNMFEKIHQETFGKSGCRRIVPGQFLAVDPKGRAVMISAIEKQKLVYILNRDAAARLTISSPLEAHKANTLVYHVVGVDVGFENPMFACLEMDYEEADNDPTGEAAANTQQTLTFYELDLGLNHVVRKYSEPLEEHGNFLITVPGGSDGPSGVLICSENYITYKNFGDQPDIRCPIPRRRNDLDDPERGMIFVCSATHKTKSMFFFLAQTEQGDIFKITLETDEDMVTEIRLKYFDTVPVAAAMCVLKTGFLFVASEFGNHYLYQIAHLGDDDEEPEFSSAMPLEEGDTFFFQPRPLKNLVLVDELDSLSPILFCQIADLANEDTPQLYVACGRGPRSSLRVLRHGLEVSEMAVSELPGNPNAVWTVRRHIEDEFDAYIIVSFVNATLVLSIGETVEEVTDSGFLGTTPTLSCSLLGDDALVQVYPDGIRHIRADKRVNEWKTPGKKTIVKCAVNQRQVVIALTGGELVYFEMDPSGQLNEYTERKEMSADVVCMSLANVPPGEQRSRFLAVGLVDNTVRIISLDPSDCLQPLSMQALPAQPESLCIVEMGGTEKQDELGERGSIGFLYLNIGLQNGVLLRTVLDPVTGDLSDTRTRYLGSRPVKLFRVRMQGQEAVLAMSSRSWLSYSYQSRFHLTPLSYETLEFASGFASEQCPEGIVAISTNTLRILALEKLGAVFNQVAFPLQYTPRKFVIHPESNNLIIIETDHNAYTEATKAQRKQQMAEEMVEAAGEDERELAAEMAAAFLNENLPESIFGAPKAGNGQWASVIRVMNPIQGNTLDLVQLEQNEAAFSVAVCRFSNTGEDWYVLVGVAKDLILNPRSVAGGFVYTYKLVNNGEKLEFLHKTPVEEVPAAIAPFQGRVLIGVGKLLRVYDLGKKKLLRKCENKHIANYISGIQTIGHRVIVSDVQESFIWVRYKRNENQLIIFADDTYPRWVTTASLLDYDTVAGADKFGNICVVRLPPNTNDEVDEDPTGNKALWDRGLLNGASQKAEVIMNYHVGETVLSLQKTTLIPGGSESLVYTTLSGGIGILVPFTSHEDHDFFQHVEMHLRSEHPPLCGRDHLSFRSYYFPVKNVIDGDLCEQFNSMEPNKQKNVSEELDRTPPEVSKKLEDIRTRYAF

[11] = biological target: T3, proteins of HEK293T cells transiently overexpressing caspase-6 (Homo sapiens, UniProt Q9UQ80); settings: Comp; protein PA2G4 Q9UQ80
T3 sequence (Q9UQ80 1-394): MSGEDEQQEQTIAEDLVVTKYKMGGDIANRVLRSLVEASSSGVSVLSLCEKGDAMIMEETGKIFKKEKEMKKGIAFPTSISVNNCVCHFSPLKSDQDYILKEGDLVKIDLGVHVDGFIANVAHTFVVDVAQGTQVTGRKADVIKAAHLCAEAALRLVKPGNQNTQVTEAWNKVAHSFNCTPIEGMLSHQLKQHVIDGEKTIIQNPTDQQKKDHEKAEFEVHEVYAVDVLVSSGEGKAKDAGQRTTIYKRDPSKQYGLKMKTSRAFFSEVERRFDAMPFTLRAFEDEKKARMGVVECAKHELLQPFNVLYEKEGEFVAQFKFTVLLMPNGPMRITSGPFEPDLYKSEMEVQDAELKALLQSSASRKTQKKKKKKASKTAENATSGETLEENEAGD

[12] = protein RARS (P54136), Exp Comp, analysis C6, p 0.0312, 7 peptides

Sequence of proteins of HEK293T cells transiently overexpressing caspase-6 (Homo sapiens, UniProt O14980) (O14980 whole entry): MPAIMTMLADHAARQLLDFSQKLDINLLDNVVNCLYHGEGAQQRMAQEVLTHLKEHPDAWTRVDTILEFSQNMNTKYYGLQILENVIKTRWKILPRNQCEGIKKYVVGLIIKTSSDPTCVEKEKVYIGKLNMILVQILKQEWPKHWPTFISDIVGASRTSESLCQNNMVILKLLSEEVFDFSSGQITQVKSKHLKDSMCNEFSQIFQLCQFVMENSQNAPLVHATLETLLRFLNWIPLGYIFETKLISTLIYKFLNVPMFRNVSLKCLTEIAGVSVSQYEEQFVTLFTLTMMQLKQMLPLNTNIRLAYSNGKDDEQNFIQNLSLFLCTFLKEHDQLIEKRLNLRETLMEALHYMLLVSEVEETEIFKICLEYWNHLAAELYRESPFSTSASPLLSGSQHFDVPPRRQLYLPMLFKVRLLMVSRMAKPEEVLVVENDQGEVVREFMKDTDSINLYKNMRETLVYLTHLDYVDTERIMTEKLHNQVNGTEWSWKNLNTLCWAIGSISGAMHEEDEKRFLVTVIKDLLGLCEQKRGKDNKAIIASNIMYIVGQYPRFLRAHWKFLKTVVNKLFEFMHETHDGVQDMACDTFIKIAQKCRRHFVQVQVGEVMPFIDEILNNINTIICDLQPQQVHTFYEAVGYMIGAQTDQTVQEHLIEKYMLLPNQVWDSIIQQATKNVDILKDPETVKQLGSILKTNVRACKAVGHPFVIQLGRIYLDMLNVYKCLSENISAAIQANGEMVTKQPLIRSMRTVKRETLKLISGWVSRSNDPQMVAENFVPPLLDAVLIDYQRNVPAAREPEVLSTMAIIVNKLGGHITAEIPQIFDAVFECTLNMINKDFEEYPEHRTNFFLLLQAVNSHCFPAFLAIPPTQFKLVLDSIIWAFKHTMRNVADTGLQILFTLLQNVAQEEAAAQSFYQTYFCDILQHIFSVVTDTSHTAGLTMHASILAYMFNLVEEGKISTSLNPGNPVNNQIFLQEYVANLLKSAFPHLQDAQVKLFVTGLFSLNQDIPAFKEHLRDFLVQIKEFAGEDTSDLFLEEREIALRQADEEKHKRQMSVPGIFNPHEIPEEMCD

SMILES: C=CS(=O)(=O)N1C[C@H](C(=O)Nc2ccc(OC(F)(F)F)cc2)C[C@@H](c2ccccc2)C1 [3a]
- enrich.exp.med [1]: 0.6797
- enrich.exp.med [2]: 0.8298
- enrich.exp.med [3]: 0.6961
- enrich.exp.med [4]: 0.6367
- enrich.exp.med [5]: 0.7149
- enrich.exp.med [6]: 0.9271
- enrich.exp.med ([7]; Comp, protein RARS P54136): 1.077
- enrich.exp.med.lin [7, 12]: 2.11
- enrich.exp.med.log2 [7, 12]: 1.077
- enrich.exp.med [8]: 0.6413
- enrich.exp.med [9]: 0.668
- enrich.exp.med [10]: 0.5835
- enrich.exp.med [11]: 0.7436
